Experimental data reported in patent US20240293400A1, “NOVEL AZAINDOLE DERIVATIVES AS ANTIVIRAL AGENTS” (Centre National de la Recherche Scientifique, priority 2021, published 2024).

Tests used:
[1] = test system: DENV subtype 2 strain (DENV2); assay: Antiviral activity against the dengue virus in HeLa cells; assay type: cell-based; details: 72 h, DENV2, 3 days
ZIKV BeH8 strain = details: cited from earlier work
[2] = test system: CHIKV virus, LR-OPY1 strain; assay: Antiviral activity against the Chikungunya virus in HeLa cells; assay type: cell-based; details: 24 h

For `Nc1nc(Nc2ccc3c(c2)CC[C@@H](N2CCCC2)CC3)nn1-c1cc2c(nn1)-c1ccccc1CCC2` [R428/Bemcentinib, Bemcentinib], the IC50 [1] is listed as 488 nM, the “concentrations of efficacy against the ZIKV virus described in the literature” value (ZIKV BeH8 strain) is listed as 1 to 3 µM and the IC50 [2] is listed as 239 nM.
